# Experimental data published in paper PMC7494739, “Evaluation of Artificial Intelligence in Participating Structure-Based Virtual Screening for Identifying Novel Interleukin-1 Receptor Associated Kinase-1 Inhibitors” (Frontiers in Oncology, 2020).
# What was measured:
# IRAK1 [1] = conditions: Figure 1; cited from earlier work
# IRAK1 [2] = conditions: Figure 1; cited from earlier work; remark: listed apart in the source
# IRAK1 kinase = IRAK1 kinase (Homo sapiens, UniProt P51617); test: IRAK1 bioactivity test (mobility shift assay); assay type: biochemical; conditions: for IC50: Table 3, initial concentration 100 μM, serial 10-fold dilution to 1 nM
# Sequence of IRAK1 kinase (P51617 whole entry): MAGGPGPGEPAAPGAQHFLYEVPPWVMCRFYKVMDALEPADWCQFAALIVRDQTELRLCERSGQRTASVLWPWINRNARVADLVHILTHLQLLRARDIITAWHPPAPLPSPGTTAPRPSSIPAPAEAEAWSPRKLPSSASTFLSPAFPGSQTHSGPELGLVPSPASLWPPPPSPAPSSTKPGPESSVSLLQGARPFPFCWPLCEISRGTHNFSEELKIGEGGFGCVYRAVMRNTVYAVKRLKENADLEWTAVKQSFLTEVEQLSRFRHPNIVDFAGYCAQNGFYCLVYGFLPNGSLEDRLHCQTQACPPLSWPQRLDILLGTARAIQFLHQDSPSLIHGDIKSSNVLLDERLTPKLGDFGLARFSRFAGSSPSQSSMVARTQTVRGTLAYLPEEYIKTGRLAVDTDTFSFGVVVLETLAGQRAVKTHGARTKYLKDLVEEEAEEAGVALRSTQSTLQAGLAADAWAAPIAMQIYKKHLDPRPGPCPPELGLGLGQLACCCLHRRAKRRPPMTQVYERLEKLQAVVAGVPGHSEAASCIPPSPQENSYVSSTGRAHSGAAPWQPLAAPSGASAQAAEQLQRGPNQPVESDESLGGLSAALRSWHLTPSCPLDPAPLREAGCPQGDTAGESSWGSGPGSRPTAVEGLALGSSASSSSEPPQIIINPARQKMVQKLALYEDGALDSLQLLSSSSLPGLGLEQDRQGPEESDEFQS
IC50 (IRAK1 kinase) [nM],Structure (SMILES),IC50 (IRAK1 [2]) [nM],other results
–,CC(C)NC(=O)[C@H]1CC[C@@H](n2/c(=N/C(=O)c3cc(F)cc(F)c3)[nH]c3ccc(CN4CCC(C(C)(C)O)CC4)cc32)CC1 [ALK inhibitor 2],–,Kd (IRAK1 [1]): 5.6 nM
–,"C1=C/COCc2cc(ccc2OCCN2CCCC2)Nc2nccc(n2)-c2cccc(c2)COC/1 [JAK/FLT3 inhibitor 3, Pacritinib]",13.6,–
–,COc1cccc(Nc2nnc(-c3cc4ccc(O)cc4oc3=O)s2)c1 [K231-1211],–,Inhibition/% (IRAK1 kinase; compound at 20 μM): -10.5%
–,O=C(Nc1nc2ccccc2n1CCN1CCOCC1)c1cccc([N+](=O)[O-])c1 [benzimidazole derivative 1],300,–
18000,NC(=O)COc1ccc2occ(C(=O)c3ccc(Cl)cc3)c2c1 [compound 4],–,–
23700,COc1ccc(C(=O)c2coc3ccc(OCC(N)=O)cc23)cc1OC [compound 5],–,–
